Laboratory results: PubChem BioAssay (NCI)
Values joined by “and” are separate entries in the source; they are usually repeats but may differ in a detail not shown here. Identical values can stand only once.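 Interpolation was linear, between the two tested concentrations surrounding the appropriate level; five concentrations were tested over 48 hours in 96-well plates. Abbreviation: GI50, concentration required for 50% inhibition of growth. TGI marks complete inhibition of growth.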

Legend:
Test in all cases: growth of human tumour cells (NCI), 48 h
[1] = system: UO-31 renal
[2] = system: KM12 colon
[3] = system: A498 renal
[4] = system: T-47D breast
[5] = system: U251 CNS
[6] = system: 786-0 renal
[7] = system: NCI-H226 lung
[8] = system: SW-620 colon
[9] = system: SR leukemia

Compound	GI50 [1]	TGI [1] [µM]	GI50 [2] [µM]	TGI [2] [µM]	GI50 [3] [µM]	TGI [3] [µM]	GI50 [4] [µM]	TGI [4] [µM]	GI50 [5] [µM]	TGI [5] [µM]	GI50 [6]	TGI [6] [µM]	GI50 [7] [µM]	TGI [7] [µM]	GI50 [8] [µM]	TGI [8] [µM]	TGI [9]	GI50 [9] [µM]
Cc1ccc(C(=O)NC(C)C)cc1-c1ccc(C(=O)NCC2CC2)cc1	> 25 µM	> 25	> 25	> 25	> 25	> 25	16.5	> 25	> 25	> 25	> 25 µM	> 25	> 25	> 25	> 25	> 25	–	–
NC12CC3CC(C1)CC(C(=O)O)(C3)C2	–	> 100	–	> 100	–	> 100	–	–	–	> 100	–	> 100	–	–	–	> 100	> 100 µM	–
O=C(CC1C(=O)NN(c2ccc(Br)cc2)C1=O)c1cc(O)ccc1O (centres undefined)	41.2 µM	> 50	9.84	40.6	> 50	> 50	–	–	14.2	36	22.4 µM	> 50	10.4	36.9	17.9	> 50	> 50 µM	> 50
COc1ccc2c(c1)[n+](=O)c(C(=O)C/C(=N/OCCCc1ccccc1)C(=O)NC13CC4CC(CC(C4)C1)C3)c(C)n2[O-]	–	> 100	–	> 100	–	> 100	–	–	–	> 100	–	> 100	–	> 100	–	> 100	> 100 µM	–
O=C(O)CCSC(=O)Nc1ccc([N+](=O)[O-])cc1	–	> 100	–	> 100	–	> 100	–	–	–	> 100	–	> 100	–	–	–	> 100	> 100 µM	–
NC(=O)COC(=O)c1c(Cl)nc2sccn12	–	> 100	–	> 100	–	> 100	–	–	–	> 100	–	36	–	> 100	–	> 64.7	85.4 µM	–
N#C/C(=C\c1ccc2ccccc2c1)c1ccccc1	–	86.7	–	> 100	–	76.4	–	–	–	57.1	–	41.3	–	> 100	–	> 100	> 100 µM	–
COc1ccc2c(c1)CCCN2c1c2ccccc2nc2ccccc12	0.69 µM	> 100	0.386	15.6	0.269	0.808	0.662	> 100	0.379	> 100	0.549 µM	9.3	–	–	0.403	> 100	> 100 µM	0.383
CCCn1c(=S)sc2c1nc(C)n1c(Nc3ccccc3)nnc21	5.05 µM	> 100	–	–	2.52	14.1	1.63	8.25	4.02	> 100	4.3 µM	49.2	4.98	23.6	8.41	22.3	16 µM	1.83
O=C1c2ccccc2C(=O)N1CCc1ncc[nH]1	–	> 100	–	> 100	–	–	–	> 100	–	–	–	> 100	–	–	–	> 100	> 100 µM	–
CC(=O)OCC1OC(NC(=S)N/N=C2\CC(c3ccccc3)Oc3ccccc32)C(OC(C)=O)C(OC(C)=O)C1OC(C)=O (centres undefined)	–	> 100	–	> 100	–	> 100	–	–	–	> 100	–	> 100	–	> 100	–	> 100	> 100 µM	–
CC(SC(=S)N1CCOCC1)c1cc2oc(=O)n(C)c2cc1Cl (centres undefined)	–	> 100	–	> 100	–	–	–	–	–	> 100	–	> 100	–	–	–	> 10	> 100 µM	–
C/C(O)=C(\N=O)C(=O)Nc1ccc(Cl)cc1Cl	–	> 100	–	> 100	–	> 100	–	–	–	> 100	–	> 100	–	> 100	–	> 100	–	–
COc1ccc(NC(=O)CC(=O)N/N=C/c2ccc(N(CCC#N)S(C)(=O)=O)cc2)cc1	–	> 100	–	> 100	–	> 100	–	–	–	> 100	–	> 100	–	> 100	–	> 100	> 100 µM	–
CC(C)(CO)N1CCN(C(=S)Nc2ccccc2)CC1	–	> 100	–	> 100	–	> 100	–	> 100	–	> 100	–	> 100	–	> 100	–	> 100	–	–
CCCCCCCC(=O)OCC/C=C/C1OC1C1OC(=O)/C=C\C=C\c2nc(oc2C)/C=C(/C)CCC2OC2C1OC(=O)NC(C)=O (centres undefined)	–	–	0.0271	0.119	0.00368	0.00927	0.042	0.161	0.0497	3.11	0.033 µM	0.203	0.0426	0.161	0.0393	1.07	0.89 µM	0.0173
Cc1c(C(=O)C/C(=N/NC(=O)C[N+](C)(C)C)C(=O)Nc2ccc(Cl)cc2)[n+](=O)c2ccccc2n1O	–	> 100	–	> 100	–	> 100	–	–	–	> 100	–	> 100	–	> 100	–	> 100	> 100 µM	–
Cn1c2ccccc2c2ccc3c(c21)C(=O)c1ccccc1C3=O	–	> 100	–	> 100	–	–	–	49.8	–	34.9	–	47.3	–	> 100	–	> 100	13.9 µM	–
O=C(O)C(CS)Nc1c2ccccc2nc2ccccc12 (centres undefined)	–	98	–	> 100	–	–	–	–	–	> 100	–	> 100	–	> 100	–	> 100	> 100 µM	–
CC(=O)O[C@H]1C(=O)[C@@]2(C)C(C(OC(=O)c3ccccc3)[C@]3(O)CC(OC(=O)[C@H](OC(=O)CCC(=O)O)C(NC(=O)c4ccccc4)c4ccccc4)C(C)=C1C3(C)C)C1(OC(C)=O)COC1C[C@@H]2O (some centres undefined)	14 µM and 61.4 µM	> 100	–	–	–	–	–	> 100	–	> 100	0.0303 µM and 0.108 µM	> 100	–	> 100	–	> 100	< 0.01 µM and 0.0173 µM	–
CCCC1N2CCCCC2[C@@H]2c3[nH]c4ccccc4c3CCN12 (some centres undefined)	–	> 100	–	–	–	> 100	–	–	–	> 100	–	> 100	–	–	–	> 100	–	–
O=C(CC1(O)C(=O)Nc2c(Cl)ccc(Cl)c21)c1ccc(F)cc1 (centres undefined)	–	> 100	–	> 100	–	–	–	–	–	> 100	–	> 100	–	79.6	–	> 100	–	–
